{"source": "patent US12077503B2", "about": "“Substituted cyclic amides and their use as herbicides” (FMC CORPORATION, priority 2015, dated 2024)", "type_in_all_cases": "in vivo", "key": {"[1]": {"system": "barnyardgrass (Echinochloa crus-galli)", "assay": "Test A preemergence", "details": "Echinochloa crus-galli, pre-emergence, 240 h", "method_in_brief": "(§1)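 Visual injury scores from 0, no effect, to 100, complete control, were assigned versus untreated controls roughly 10 d after treatment in the greenhouse. Test chemicals, formulated with surfactant in a non-phytotoxic solvent, were applied to planted seeds as a preemergence soil spray or postemergence to one- to two-leaf plants 2 to 10 cm tall, in loam–sand soil.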"}, "corn (Zea mays)": {"system": "corn (Zea mays)", "assay": "Test A postemergence", "details": "Zea mays, post-emergence, 240 h, 125 g ai/ha, postemergence, visual injury rating after approximately 10 d; read-out: Corn plant response rating (0 to 100 scale, 0 no effect, 100 complete control)", "method_in_brief": "as §1"}, "[2]": {"system": "pigweed (Amaranthus retroflexus)", "assay": "Test A postemergence", "details": "Amaranthus retroflexus, post-emergence, 240 h, 125 g ai/ha, postemergence, visual injury rating after approximately 10 d; read-out: Pigweed plant response rating (0 to 100 scale, 0 no effect, 100 complete control)", "method_in_brief": "as §1"}, "[3]": {"system": "giant foxtail (Setaria faberii)", "assay": "Test A postemergence", "details": "Setaria faberi, post-emergence, 240 h, 125 g ai/ha, postemergence, visual injury rating after approximately 10 d; read-out: Foxtail, Giant plant response rating (0 to 100 scale, 0 no effect, 100 complete control)", "method_in_brief": "as §1"}, "Kochia (Kochia scoparia)": {"system": "Kochia (Kochia scoparia)", "assay": "Test A postemergence", "details": "Bassia scoparia, post-emergence, 240 h, 125 g ai/ha, postemergence, visual injury rating after approximately 10 d; read-out: Kochia plant response rating (0 to 100 scale, 0 no effect, 100 complete control)", "method_in_brief": "as §1"}, "[4]": {"system": "barnyardgrass (Echinochloa crus-galli)", "assay": "Test A postemergence", "details": "Echinochloa crus-galli, post-emergence, 240 h, 125 g ai/ha, postemergence, visual injury rating after approximately 10 d; read-out: Barnyardgrass plant response rating (0 to 100 scale, 0 no effect, 100 complete control)", "method_in_brief": "as §1"}, "[5]": {"system": "wheat (Triticum aestivum)", "assay": "Test A postemergence", "details": "Triticum aestivum, post-emergence, 240 h, 125 g ai/ha, postemergence, visual injury rating after approximately 10 d; read-out: Wheat plant response rating (0 to 100 scale, 0 no effect, 100 complete control)", "method_in_brief": "as §1"}, "[6]": {"system": "Galium (catchweed bedstraw, Galium aparine)", "assay": "Test A postemergence", "details": "Galium, post-emergence, 240 h, 125 g ai/ha, postemergence, visual injury rating after approximately 10 d; read-out: Galium plant response rating (0 to 100 scale, 0 no effect, 100 complete control)", "method_in_brief": "as §1"}, "[7]": {"system": "blackgrass (Alopecurus myosuroides)", "assay": "Test A postemergence", "details": "Alopecurus myosuroides, post-emergence, 240 h, 125 g ai/ha, postemergence, visual injury rating after approximately 10 d; read-out: Blackgrass plant response rating (0 to 100 scale, 0 no effect, 100 complete control)", "method_in_brief": "as §1"}, "[8]": {"system": "ryegrass, Italian (Italian ryegrass, Lolium multiflorum)", "assay": "Test A postemergence", "details": "Lolium multiflorum, post-emergence, 240 h, 125 g ai/ha, postemergence, visual injury rating after approximately 10 d; read-out: Ryegrass, Italian plant response rating (0 to 100 scale, 0 no effect, 100 complete control)", "method_in_brief": "as §1"}, "[9]": {"system": "ragweed (common ragweed, Ambrosia elatior)", "assay": "Test A postemergence", "details": "Ambrosia artemisiifolia, post-emergence, 240 h, 125 g ai/ha, postemergence, visual injury rating after approximately 10 d; read-out: Ragweed plant response rating (0 to 100 scale, 0 no effect, 100 complete control)", "method_in_brief": "as §1"}, "[10]": {"system": "sedge, umbrella (small-flower umbrella sedge, Cyperus difformis)", "assay": "Test B flooded paddy test", "details": "Cyperus difformis, Flood, 250 g ai/ha; scale of 0 to 100 where 0 is no effect and 100 is complete control; read-out: Sedge, Umbrella plant response rating", "method_in_brief": "(§2)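 Compound goes directly into floodwater once pots are flooded 3 cm above soil, targeting plants at two leaves; the water depth is then held for the test duration. Plants sit 13–15 d in a greenhouse and are rated visually, 100 denoting complete control.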"}, "[11]": {"system": "ducksalad (Heteranthera limosa)", "assay": "Test B flooded paddy test", "details": "Heteranthera limosa, Flood, 250 g ai/ha; scale of 0 to 100 where 0 is no effect and 100 is complete control; read-out: Ducksalad plant response rating", "method_in_brief": "as §2"}, "[12]": {"system": "barnyardgrass (Echinochloa crus-galli)", "assay": "Test B flooded paddy test", "details": "Echinochloa crus-galli, Flood, 250 g ai/ha; scale of 0 to 100 where 0 is no effect and 100 is complete control; read-out: Barnyardgrass plant response rating", "method_in_brief": "as §2"}, "rice (Oryra sativa)": {"system": "rice (Oryra sativa)", "assay": "Test B flooded paddy test", "details": "Oryza sativa, Flood, 250 g ai/ha; scale of 0 to 100 where 0 is no effect and 100 is complete control; read-out: Rice plant response rating", "method_in_brief": "as §2"}}, "data": [{"molecule": "CN1CC(c2cccc(I)c2)C(C(=O)Nc2ccccc2F)C1=O", "note": "(stereo not shown) [Compound 846]", "values": [{"measurement": "pest or weed control at 125 g/ha", "setting": "[1]; 125 g ai/ha, preemergence, 0 to 100 scale where 0 is no effect and 100 is complete control, read-out: Barnyardgrass plant response rating", "result": 90, "unit": "%"}, {"measurement": "pest or weed control at 500 g/ha", "setting": "[1]; 500 g ai/ha, Preemergence, visual injury vs untreated controls after approximately 10 d, read-out: Barnyardgrass plant response rating (0 to 100 scale where 0 is no effect and 100 is complete control)", "result": 90, "unit": "%"}, {"measurement": "plant injury at 125 g/ha", "setting": "corn (Zea mays)", "result": 60, "unit": "%"}, {"measurement": "pest or weed control at 125 g/ha", "setting": "[2]", "result": 0, "unit": "%"}, {"measurement": "pest or weed control at 125 g/ha", "setting": "[3]", "result": 90, "unit": "%"}, {"measurement": "pest or weed control at 125 g/ha", "setting": "Kochia (Kochia scoparia)", "result": 40, "unit": "%"}, {"measurement": "pest or weed control at 125 g/ha", "setting": "[4]", "result": 90, "unit": "%"}, {"measurement": "plant injury at 125 g/ha", "setting": "[5]", "result": 0, "unit": "%"}, {"measurement": "pest or weed control at 125 g/ha", "setting": "[6]", "result": 0, "unit": "%"}, {"measurement": "pest or weed control at 125 g/ha", "setting": "[7]", "result": 50, "unit": "%"}, {"measurement": "pest or weed control at 125 g/ha", "setting": "[8]", "result": 70, "unit": "%"}, {"measurement": "pest or weed control at 125 g/ha", "setting": "[9]", "result": 0, "unit": "%"}, {"measurement": "pest or weed control at 250 g/ha", "setting": "[10]", "result": 0, "unit": "%"}, {"measurement": "pest or weed control at 250 g/ha", "setting": "[11]", "result": 60, "unit": "%"}, {"measurement": "pest or weed control at 250 g/ha", "setting": "[12]", "result": 60, "unit": "%"}, {"measurement": "pest or weed control at 250 g/ha", "setting": "rice (Oryra sativa)", "result": 0, "unit": "%"}]}]}
